Source: ChEMBL document CHEMBL1143824, “National survey on the susceptibility of Bacteroides fragilis group: report and analysis of trends in the United States from 1997 to 2004” (2007)
Values after ≈ are worked out from the molar mass of the structure shown.

Key:
Type in all cases: functional
Bacteroides stercoris [1] = test: Antimicrobial activity against Bacteroides stercoris assessed as percent resistant isolates
Bacteroides fragilis [2] = test: Antimicrobial activity against Bacteroides fragilis isolates by agar dilution method
[3] = system: Parabacteroides distasonis; test: Antimicrobial activity against Bacteroides distasonis isolates by agar dilution method
Bacteroides ovatus [4] = test: Antimicrobial activity against Bacteroides ovatus isolates by agar dilution method
[5] = system: Bacteroides thetaiotaomicron; test: Antimicrobial activity against Bacteroides thetaiotaomicron isolates by agar dilution method
Bacteroides uniformis [6] = test: Antimicrobial activity against Bacteroides uniformis isolates by agar dilution method
Phocaeicola vulgatus [7] = test: Antimicrobial activity against Bacteroides vulgatus isolates by agar dilution method
Bacteroides caccae [8] = test: Antimicrobial activity against Bacteroides caccae isolates by agar dilution method
Bacteroides eggerthii [9] = test: Antimicrobial activity against Bacteroides eggerthii isolates by agar dilution method
Bacteroides stercoris [10] = test: Antimicrobial activity against Bacteroides stercoris isolates by agar dilution method
Parabacteroides merdae [11] = test: Antimicrobial activity against Bacteroides merdae isolates by agar dilution method
Bacteroides fragilis [12] = test: Antimicrobial activity against Bacteroides fragilis assessed as percent resistant isolates
[13] = system: Parabacteroides distasonis; test: Antimicrobial activity against Bacteroides distasonis assessed as percent resistant isolates
Bacteroides ovatus [14] = test: Antimicrobial activity against Bacteroides ovatus assessed as percent resistant isolates
[15] = system: Bacteroides thetaiotaomicron; test: Antimicrobial activity against Bacteroides thetaiotaomicron assessed as percent resistant isolates
Bacteroides uniformis [16] = test: Antimicrobial activity against Bacteroides uniformis assessed as percent resistant isolates
Phocaeicola vulgatus [17] = test: Antimicrobial activity against Bacteroides vulgatus assessed as percent resistant isolates
Bacteroides caccae [18] = test: Antimicrobial activity against Bacteroides caccae assessed as percent resistant isolates
Bacteroides eggerthii [19] = test: Antimicrobial activity against Bacteroides eggerthii assessed as percent resistant isolates
Parabacteroides merdae [20] = test: Antimicrobial activity against Bacteroides merdae assessed as percent resistant isolates

| SMILES | Activity (Bacteroides stercoris [1]) [%] | MIC (Bacteroides fragilis [2]) [µg/mL] | MIC90 (Bacteroides fragilis [2]) [µg/mL] | MIC [3] [µg/mL] | MIC90 [3] [µg/mL] | MIC (Bacteroides ovatus [4]) [µg/mL] | MIC90 (Bacteroides ovatus [4]) [µg/mL] | MIC [5] [µg/mL] | MIC90 [5] [µg/mL] | MIC (Bacteroides uniformis [6]) [µg/mL] | MIC90 (Bacteroides uniformis [6]) [µg/mL] | MIC (Phocaeicola vulgatus [7]) [µg/mL] | MIC90 (Phocaeicola vulgatus [7]) [µg/mL] | MIC (Bacteroides caccae [8]) [µg/mL] | MIC90 (Bacteroides caccae [8]) [µg/mL] | MIC (Bacteroides eggerthii [9]) [µg/mL] | MIC90 (Bacteroides eggerthii [9]) [µg/mL] | MIC (Bacteroides stercoris [10]) [µg/mL] | MIC90 (Bacteroides stercoris [10]) [µg/mL] | MIC (Parabacteroides merdae [11]) [µg/mL] | also measured |
| --- | --- | --- | --- | --- | --- | --- | --- | --- | --- | --- | --- | --- | --- | --- | --- | --- | --- | --- | --- | --- | --- |
| C[C@@H](O)[C@H]1C(=O)N2C(C(=O)O)=C(SCCNC=N)C[C@H]12 [IMIPENEM ANHYDROUS] | 0 | 0.31 (≈ 1.04 µM) | 1 (≈ 3.34 µM) | 0.95 (≈ 3.17 µM) | 2 (≈ 6.68 µM) | 0.39 (≈ 1.3 µM) | 1 (≈ 3.34 µM) | 0.45 (≈ 1.5 µM) | 1 (≈ 3.34 µM) | 0.43 (≈ 1.44 µM) | 1 (≈ 3.34 µM) | 0.5 (≈ 1.67 µM) | 1 (≈ 3.34 µM) | 0.35 (≈ 1.17 µM) | 1 (≈ 3.34 µM) | 0.35 (≈ 1.17 µM) | 1 (≈ 3.34 µM) | 0.35 (≈ 1.17 µM) | 1 (≈ 3.34 µM) | 0.35 (≈ 1.17 µM) | MIC90 (Parabacteroides merdae [11]): 1 µg/mL (≈ 3.34 µM); Activity (Bacteroides fragilis [12]): 0.5%; Activity [13]: 0.4%; Activity (Bacteroides ovatus [14]): 0.2%; Activity [15]: 0.2%; Activity (Bacteroides uniformis [16]): 0.5%; Activity (Phocaeicola vulgatus [17]): 0.3%; Activity (Bacteroides caccae [18]): 0%; Activity (Bacteroides eggerthii [19]): 0%; Activity (Parabacteroides merdae [20]): 0% |
| CCC[C@@H]1C[C@@H](C(=O)NC([C@H](C)Cl)[C@H]2O[C@H](SC)[C@H](O)[C@@H](O)[C@H]2O)N(C)C1 (single isomer, unassigned) [CLINDAMYCIN] | 28.2 | 1.89 (≈ 4.45 µM) | 256 (≈ 602 µM) | 4.51 (≈ 10.6 µM) | 256 (≈ 602 µM) | 5.89 (≈ 13.9 µM) | 256 (≈ 602 µM) | 6.62 (≈ 15.6 µM) | 256 (≈ 602 µM) | 4.22 (≈ 9.93 µM) | 256 (≈ 602 µM) | 4.31 (≈ 10.1 µM) | 256 (≈ 602 µM) | 3.63 (≈ 8.54 µM) | 256 (≈ 602 µM) | 3.63 (≈ 8.54 µM) | 256 (≈ 602 µM) | 3.63 (≈ 8.54 µM) | 256 (≈ 602 µM) | 3.63 (≈ 8.54 µM) | MIC90 (Parabacteroides merdae [11]): 256 µg/mL (≈ 602 µM); Activity (Bacteroides fragilis [12]): 19.3%; Activity [13]: 29.6%; Activity (Bacteroides ovatus [14]): 33.4%; Activity [15]: 33.3%; Activity (Bacteroides uniformis [16]): 28.9%; Activity (Phocaeicola vulgatus [17]): 35.3%; Activity (Bacteroides caccae [18]): 28.2%; Activity (Bacteroides eggerthii [19]): 28.2%; Activity (Parabacteroides merdae [20]): 28.2% |
| CN(C)c1cc(NC(=O)CNC(C)(C)C)c(O)c2c1C[C@H]1C[C@H]3[C@H](N(C)C)C(O)=C(C(N)=O)C(=O)[C@@]3(O)C(O)=C1C2=O [TIGECYCLINE] | 7.2 | 1.59 (≈ 2.71 µM) | 8 (≈ 13.7 µM) | 2.09 (≈ 3.57 µM) | 8 (≈ 13.7 µM) | 1.52 (≈ 2.6 µM) | 8 (≈ 13.7 µM) | 1.57 (≈ 2.68 µM) | 8 (≈ 13.7 µM) | 0.77 (≈ 1.31 µM) | 4 (≈ 6.83 µM) | 1.05 (≈ 1.79 µM) | 4 (≈ 6.83 µM) | 1.51 (≈ 2.58 µM) | 8 (≈ 13.7 µM) | 1.51 (≈ 2.58 µM) | 8 (≈ 13.7 µM) | 1.51 (≈ 2.58 µM) | 8 (≈ 13.7 µM) | 1.51 (≈ 2.58 µM) | MIC90 (Parabacteroides merdae [11]): 8 µg/mL (≈ 13.7 µM); Activity (Bacteroides fragilis [12]): 5.1%; Activity [13]: 2.1%; Activity (Bacteroides ovatus [14]): 3.3%; Activity [15]: 3.6%; Activity (Bacteroides uniformis [16]): 3.4%; Activity (Phocaeicola vulgatus [17]): 1.6%; Activity (Bacteroides caccae [18]): 7.2%; Activity (Bacteroides eggerthii [19]): 7.2%; Activity (Parabacteroides merdae [20]): 7.2% |
